Experimental data taken from patent US20060270685A1, “Anhydrous ziprasidone mesylate and a process for its preparation” (priority 2005, published 2006).
Where a name gives a salt, the structure may show the parent alone.

Assays:
[1] = Water uptake (hygroscopicity) after exposure to 80% relative humidity, Karl Fisher and XRD; assay type: physicochemical
Protocol: The present invention further provides non hygroscopic anhydrous ziprasidone mesylate. Anhydrous ziprasidone mesylate is tested for water uptake after exposure to 80% relative humidity, at room temperature for 7 days, as summarized in the following table:
X-Ray powder diffraction data were obtained using a SCINTAG powder X-Ray diffractometer model X'TRA equipped with a solid state detector. Copper radiation of 1.5418 Å was used. A round aluminum sample holder with zero background was used. All peak positions are within ±0.2 degrees two theta. Karl Fisher analysis was performed according to the known art.
Anhydrous ziprasidone mesylate, having a tabular, and equant morphology was exposed to 80% humidity for at least 7 days at room temperature. Before the exposure, the water content was 0.5% as measured by Karl Fisher. After 7 days at 80% humidity at RT the sample contained 0.6% water as measured by Karl Fisher. Thus, there was an increase of 0.1% in the water content.

[2] = when exposed to air (humidity); cited from earlier work
[3] = 80% RH, room temperature, 7 days

**Q.** Which results are given for `O=C1Cc2cc(CCN3CCN(c4nsc5ccccc45)CC3)c(Cl)cc2N1` [Anhydrous ziprasidone mesylate, ziprasidone mesylate]?
**A.** Crystal form (by XRD) [1, 3]: Anhydrous; water Content (By KF) [1, 3]: 0.6; change in the crystal form after the exposure ([1]; 80% humidity, at least 7 days, room temperature): No change in the crystal form; increase in the water content ([1]; 7 days at 80% humidity at RT vs before exposure): 0.1%; Crystal form (by XRD) ([1]; Initial, before exposure): Anhydrous; water Content (By KF) ([1]; Initial, before exposure): 0.5; water content as measured by Karl Fisher ([1]; after 7 days at 80% humidity at RT): 0.6%; water content as measured by Karl Fisher ([1]; before the exposure): 0.5%; hygroscopicity [2]: hygroscopic
